Data on 23 compounds can be found in patent publication US12384768B2, “Isoxazole carboxylic acids as LPA antagonists” (BRISTOL-MYERS SQUIBB COMPANY, priority 2019, dated 2025).

One assay concerns mouse epithelial renal cell line, MCT.
Experiment: not given
The settings on record: MCT cells, co-treatment with LPA; cited from earlier work.
Take `Cc1noc(-c2ccc(CSCCC(=O)O)cc2)c1NC(=O)OC(C)c1ccccc1Cl` (stereo not drawn) [Ki16425]: the “LPA-induced expression of CTGF” value was “almost completely suppressed”.

Another assay concerns human foetal lung fibroblasts.
Experiment: not given
As to conditions: Tager et al.; cited from earlier work.
For `Cc1noc(-c2ccc(CSCCC(=O)O)cc2)c1NC(=O)OC(C)c1ccccc1Cl` (stereo not drawn) [Ki16425], the “chemotaxis of human foetal lung fibroblasts induced by BAL from IPF patients” value is on record as “blocked”.

A further assay concerns IPF patients.
Experiment: not given
The settings on record: 26-week clinical trial, IPF patients (Palmer et al.); cited from earlier work.
`Cc1noc(-c2ccc(-c3ccc(C4(C(=O)O)CC4)cc3)cc2)c1NC(=O)O[C@H](C)c1ccccc1` [BMS-986020]: the “rate of FVC (forced vital capacity) decline” value is given as “significantly reduce”.

Another assay deals with pancreatic cancer cell lines.
Experiment: not given
The settings on record: highly peritoneal metastatic pancreatic cancer cell line; cited from earlier work.
For the compound `Cc1noc(-c2ccc(CSCCC(=O)O)cc2)c1NC(=O)OC(C)c1ccccc1Cl` (stereo not drawn) [Ki16425], the “LPA-induced and ascites-induced invasion activity” value is “blocked”.

Still in this assay, the particulars now being: pancreatic cancer cell lines (Yamada et al.); cited from earlier work.
With `Cc1noc(-c2ccc(CSCCC(=O)O)cc2)c1NC(=O)OC(C)c1ccccc1Cl` (stereo not drawn) [Ki16425], the “in vitro migration in response to LPA and peritoneal fluid (ascites)” value was “effectively blocked”.

The target in another assay is T1, human LPA1 (Homo sapiens, UniProt Q92633).
T1 construct: expressed in transfected cells; host or cells: Chinese hamster ovary (CHO) cells
T1 sequence (Q92633 whole entry): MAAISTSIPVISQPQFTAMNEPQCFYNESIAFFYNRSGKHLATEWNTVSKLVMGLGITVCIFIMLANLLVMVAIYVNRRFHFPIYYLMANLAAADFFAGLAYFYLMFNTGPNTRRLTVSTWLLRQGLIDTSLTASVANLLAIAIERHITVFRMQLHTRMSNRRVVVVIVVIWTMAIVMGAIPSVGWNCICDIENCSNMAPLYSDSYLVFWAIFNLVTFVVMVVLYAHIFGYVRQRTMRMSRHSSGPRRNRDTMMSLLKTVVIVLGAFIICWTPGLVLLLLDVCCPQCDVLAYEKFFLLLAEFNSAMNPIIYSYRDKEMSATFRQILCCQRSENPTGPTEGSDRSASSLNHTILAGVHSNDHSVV
The assay can be described thus: LPA1 functional antagonist assay (calcium flux). Format: cell-based. The settings on record: CHO cells overexpressing human LPA1; inhibition of calcium flux induced by 10 nM LPA; read-out: hLPA1 IC50. Here is the method: The effectiveness of compounds of the present invention as LPA1 inhibitors can be determined in an LPA1 functional antagonist assay as follows:
Chinese hamster ovary cells overexpressing human LPA1 were plated overnight (15,000 cells/well) in poly-D-lysine coated 384-well microplates (Greiner bio-one, Cat #781946) in DMEM/F12 medium (Gibco, Cat #11039). Following overnight culture, cells were loaded with calcium indicator dye (AAT Bioquest Inc, Cat #34601) for 30 minutes at 37° C. The cells were then equilibrated to room temperature for 30 minutes before the assay. Test compounds solubilized in DMSO were transferred to 384 well non-binding surface plates (Corning, Cat #3575) using the Labcyte Echo acoustic dispense and diluted with assay buffer [1×HBSS with calcium/magnesium (Gibco Cat #14025-092), 20 mM HEPES (Gibco Cat #15630-080) and 0.1% fatty acid free BSA (Sigma Cat #A9205)] to a final concentration of 0.5% DMSO. Diluted compounds were added to the cells by FDSS6000 (Hamamatsu) at final concentrations ranging from 0.08 nM to 5 μM. and were then incubated for 20 min at room temperature at which time LPA (Avanti Polar Lipids Cat #857130C) was added at final concentrations of 10 nM to stimulate the cells. The compound IC50 value was defined as the concentration of test compound which inhibited 50% of the calcium flux induced by LPA alone. IC50 values were determined by fitting data to a 4-parameter logistic equation (GraphPad Prism, San Diego CA).
One may read the IC50 as the concentration that inhibits the measured activity by half. For `Cc1noc(-c2ccc(O[C@H]3C[C@H](C(=O)O)C[C@@H]4C[C@@H]43)cc2)c1COC(=O)N(C)C1CCCC1` (racemic) [Example 10, (±)-(1S,3R,5S,6S)-5-(4-(4-(((cyclopentyl(methyl)carbamoyl)oxy)methyl)-3-methyl-isoxazol-5-yl)phenoxy) bicyclo[4.1.0]heptane-3-carboxylic acid], the half-inhibitory concentration (IC50) turned out to be 0.182 µM.
The same measure, in the same setting: the same measure for `Cc1noc(-c2ccc(OC3CC4C(C3)C4C(=O)O)cc2)c1COC(=O)N(C)CC1CCC1` (racemic) [Example 15, (±)-3-(4-(4-((((Cyclobutylmethyl)(methyl)carbamoyl)oxy)methyl)-3-methyl-isoxazol-5-yl)phenoxy)bicyclo[3.1.0]hexane-6-carboxylic acid]: 0.563 µM.
With `Cc1noc(-c2ccc(OC3CCCC4C(C(=O)O)C34)cc2)c1COC(=O)N(C)CC1CC1` (stereo not drawn) [Example 20], the IC50 is 1.52 µM.
As for `Cc1noc(-c2ccc(O[C@H]3CCO[C@@H](C(=O)O)C3)cc2)c1COC(=O)N(C)CCC(C)C` (racemic) [Example 7], the IC50 was 0.2 µM.
Consider `CCCCN(C)C(=O)OCc1c(C)noc1-c1ccc(OC2CC3C(C2)C3C(=O)O)cc1` (stereo not drawn) [Example 16], for which the IC50 came to 0.372 µM.
`Cc1noc(-c2ccc(O[C@H]3CCO[C@@H](C(=O)O)C3)cc2)c1COC(=O)N(C)C1CCCC1` (racemic) [Example 6, (±)-cis-4-(4-(4-(((cyclopentyl(methyl)carbamoyl)oxy)methyl)-3-methylisoxazol-5-yl)phenoxy)tetrahydro-2H-pyran-2-carboxylic acid]: the IC50 was 0.29 µM.
Consider `Cc1noc(-c2ccc(O[C@@H]3C[C@H](C(=O)O)C[C@H]4C[C@H]43)cc2)c1COC(=O)N(C)C1CCCC1` (racemic) [Example 12, (±)-(1R,3R,5R,6R)-5-(4-(4-(((cyclopentyl(methyl)carbamoyl)oxy)methyl)-3-methylisoxazol-5-yl)phenoxy)bicyclo[4.1.0]heptane-3-carboxylic acid], for which the IC50 turned out to be 0.197 µM.
As for `CCCCN(C)C(=O)OCc1c(C)noc1-c1ccc(O[C@@H]2C[C@H](C(=O)O)C[C@@H]3C[C@@H]32)cn1` (racemic) [Example 13, (±)-(1S,3R,5R,6S)-5-((6-(4-(((butyl(methyl)carbamoyl)oxy)methyl)-3-methyl-isoxazol-5-yl)pyridin-3-yl)oxy)bicyclo[4.1.0]heptane-3-carboxylic acid], the IC50 was 0.022 µM.
For `Cc1noc(-c2ccc(OC3CC(C(=O)O)CC4CC43)cc2)c1COC(=O)N(C)C1CCCC1` (racemic) [Example 11, (±)-(1R,3R,5R,6R)-5-(4-(4-(((cyclopentyl(methyl)carbamoyl)oxy)methyl)-3-methylisoxazol-5-yl)phenoxy)bicyclo[4.1.0]heptane-3-carboxylic acid], the half-maximal inhibitory concentration (IC50) stood at 0.065 µM.
Take `Cc1noc(-c2ccc(O[C@@H]3COC[C@@H](C(=O)O)C3)cc2)c1COC(=O)N(C)CCC(C)C` (racemic) [Example 3]: the IC50 turned out to be 0.218 µM.
Take `Cc1noc(-c2ccc(O[C@H]3CCO[C@H](C(=O)O)C3)cc2)c1COC(=O)N(C)C1CCCC1` (racemic) [Example 5, (±)-trans-4-(4-(4-(((cyclopentyl(methyl)carbamoyl)oxy)methyl)-3-methylisoxazol-5-yl)phenoxy)tetrahydro-2H-pyran-2-carboxylic acid]: the IC50 amounted to 0.56 µM.
For `Cc1noc(-c2ccc(OC3CCC4C(C(=O)O)C34)cc2)c1COC(=O)N(C)C1CCCC1` (racemic) [Example 14, (±)-2-(4-(4-(((Cyclopentyl(methyl)carbamoyl)oxy)methyl)-3-methylisoxazol-5-yl)phenoxy)bicyclo[3.1.0]hexane-6-carboxylic acid], the IC50 is 0.048 µM.
Still for that read-out and setting: the same measure for `CCCCN(C)C(=O)OCc1c(C)noc1-c1ccc(OC2CCCC3C(C(=O)O)C23)cc1` (stereo not drawn) [Example 18]: 0.973 µM; for `Cc1noc(-c2ccc(OC3CCCC4C(C(=O)O)C34)cc2)c1COC(=O)N(C)C1CCCC1` (racemic) [Example 17, (±)-2-(4-(4-(((Cyclopentyl(methyl)carbamoyl)oxy)methyl)-3-methylisoxazol-5-yl)phenoxy) bicyclo [4.1.0]heptane-7-carboxylic acid]: 0.396 µM; for `Cc1noc(-c2ccc(O[C@H]3COC[C@H](C(=O)O)C3)cc2)c1COC(=O)N(C)C1CCCC1` (racemic) [Example 1, (±)-trans-5-(4-(4-(((cyclopentyl(methyl)carbamoyl)oxy)methyl)-3-methylisoxazol-5-yl)phenoxy)tetrahydro-2H-pyran-3-carboxylic acid)]: 0.14 µM.
On the same count and under the same terms, the figure for `Cc1noc(-c2ccc(O[C@@H]3COC[C@H](C(=O)O)C3)cc2)c1COC(=O)N(C)CCC(C)C` [Example 4] is 0.102 µM.
With `Cc1noc(-c2ccc(O[C@@H]3COC[C@H](C(=O)O)C3)cc2)c1COC(=O)N(C)C1CCCC1` (racemic) [Example 2, (±)-cis-5-(4-(4-(((cyclopentyl(methyl)carbamoyl)oxy)methyl)-3-methyl-isoxazol-5-yl)phenoxy)tetrahydro-2H-pyran-3-carboxylic acid)], the IC50 was found to be 0.145 µM.
For the compound `Cc1noc(-c2ccc(OC3CCCC4C(C(=O)O)C34)cc2)c1COC(=O)N(C)CC1CCC1` (stereo not drawn) [Example 19], the IC50 is 1.34 µM.
As to `Cc1noc(-c2ccc(O[C@H]3CCO[C@H](C(=O)O)C3)cc2)c1COC(=O)N(C)CCC(C)C` [Example 8], the IC50 was determined as 1.1 µM.
As for `Cc1noc(-c2ccc(O[C@@H]3CCO[C@H](C(=O)O)C3)cc2)c1COC(=O)N(C)CCC(C)C` (single isomer, unassigned) [Example 9], the IC50 amounted to 0.041 µM.

For a further assay, the system named is UUO mice.
Experiment: not given
As to conditions: cited from earlier work.
With `Cc1noc(-c2ccc(CSCCC(=O)O)cc2)c1NC(=O)OC(C)c1ccccc1Cl` (stereo not drawn) [Ki16425], the “development of renal fibrosis, profile compared with LPA1 (-/-) mice” value is “closely resembled the profile of LPA1 (−/−) mice”.

In a further assay the test system is nerve-injured mice.
Experiment: not given
As to conditions: pretreatment, nerve-injured mice (Inoue et al.); cited from earlier work.
Regarding `C[C@@H](N)[C@H]1CC[C@H](C(=O)Nc2ccncc2)CC1` [Example Y-27632], the allodynia and hyperalgesia entry is given as “completely abolished”.
